Read-outs that look alike come from different tables or passages of the source.

The subject of experiment [1] is Human melanoma cancer cells (SK-MEL-28). As to the kind of experiment: Cell growth inhibition assay (CellTiter-Glo), SK-MEL-28. The class given is cell-based. (Cellular ATP, detected with luciferase, serves as a proxy for viable cell number.)
For experiment [2], the system named is Human colon tumor cells (Colo205). The experiment is described as follows: Cell growth inhibition assay (CellTiter-Glo), Colo205. Format: cell-based. An outline of the steps:
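Colo205 (and SK-MEL-28) cells in RPMI with 10% FBS were exposed to 10-point 1:3 serial dilutions of compound at 0.2% final DMSO for 3 days at 37 °C. Total ATP, a surrogate for cell number, was read by CellTiter-Glo luminescence, with % growth inhibition relative to DMSO-treated wells.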

In experiment [3] the target is T1, BRAFV600E full-length (amino acids 2-766) (Homo sapiens, UniProt P15056, V600E).
T1 construct: His6-tagged BRAFV600E full-length (amino acids 2-766); His6; made in house; host or cells: baculovirus expression system (insect cells)
The experiment is described as follows: B-Raf Accelerated MEK ATPase assay (BRAMA). The class given is biochemical. To be noted: categorized. An outline of the steps:
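Coupled-enzyme readout: ADP generated by MEK-mediated ATP hydrolysis, uncoupled from ERK phosphorylation, is linked to NADH oxidation through pyruvate kinase and lactate dehydrogenase.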

Where [4] appears, read: SK-MEL-28, Table 3b, later runs, average for the one or more runs, categorized, read-out: IC50 for SK-MEL-28.
[5] abbreviates: COLO 205, Table 2b, later runs, average for the one or more runs, categorized, read-out: IC50 for Colo205.
Where [6] appears, read: Table 1b, later runs, average pIC50 for the one or more runs, read-out: B-Raf pIC50 (converted).
Setting [7] is: SK-MEL-28, 72 h, Table 3a, 3 days incubation, read-out: Activity in SK-MEL-28 Tumor Cells.
The mark [8] stands for this setting: COLO 205, 72 h, Table 2a, 3 days incubation, read-out: Activity in Colo205 Tumor Cells.
Setting [9] is: B-Raf Activity, Table 1a, highest pIC50 for the one or more runs.
The mark [10] stands for this setting: B-Raf pIC50, Table 1b, later runs, average pIC50 for the one or more runs.

T1 sequence (P15056 2-766 V600E): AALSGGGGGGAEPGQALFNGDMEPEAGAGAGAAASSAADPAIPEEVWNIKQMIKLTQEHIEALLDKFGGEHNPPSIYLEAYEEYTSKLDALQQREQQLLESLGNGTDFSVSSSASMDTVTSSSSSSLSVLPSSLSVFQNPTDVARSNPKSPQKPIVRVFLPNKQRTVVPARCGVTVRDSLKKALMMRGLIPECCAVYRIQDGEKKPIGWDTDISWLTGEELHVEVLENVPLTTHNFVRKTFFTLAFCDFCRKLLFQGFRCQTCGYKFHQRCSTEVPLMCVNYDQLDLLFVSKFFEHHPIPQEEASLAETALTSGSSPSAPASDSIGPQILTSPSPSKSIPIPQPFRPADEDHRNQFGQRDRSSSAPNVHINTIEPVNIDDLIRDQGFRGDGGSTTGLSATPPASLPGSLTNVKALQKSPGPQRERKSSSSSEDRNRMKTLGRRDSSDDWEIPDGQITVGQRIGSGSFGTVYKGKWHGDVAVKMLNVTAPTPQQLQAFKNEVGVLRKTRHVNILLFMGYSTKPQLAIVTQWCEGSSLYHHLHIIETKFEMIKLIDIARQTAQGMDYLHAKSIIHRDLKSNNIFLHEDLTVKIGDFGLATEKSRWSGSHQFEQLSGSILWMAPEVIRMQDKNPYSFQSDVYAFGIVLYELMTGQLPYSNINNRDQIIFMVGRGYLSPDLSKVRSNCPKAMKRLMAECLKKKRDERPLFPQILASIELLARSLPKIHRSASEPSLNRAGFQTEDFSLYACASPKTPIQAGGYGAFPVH

Take `CC(C)(O)CCc1nccc(-c2sc(C(C)(C)C)nc2-c2cccc(NS(=O)(=O)c3c(F)cccc3F)c2F)n1` [Example 249, N-(3-{2-(1,1-dimethylethyl)-5-[2-(3-hydroxy-3-methylbutyl)-4-pyrimidinyl]-1,3-thiazol-4-yl}-2-fluorophenyl)-2,6-difluorobenzenesulfonamide]: the IC50 in experiment [1] (setting [4]) is less than 100 nM; in experiment [2] (setting [5]) it was less than 100 nM; in experiment [3] (setting [6]), 3.16 to 31.6 nM.

With `CC(C)(C)c1nc(-c2cccc(NS(=O)(=O)c3cc(F)ccc3F)c2F)c(-c2ccnc(NCCO)n2)s1` [Example 210], the IC50 in experiment [1] (setting [7]) was less than 100 nM; in experiment [1] (setting [4]), less than 100 nM; in experiment [2] (setting [8]), less than 100 nM; in experiment [2] (setting [5]), less than 100 nM; in experiment [3] (setting [9]) it was less than 100 nM; in experiment [3] (setting [10]), no more than 3.16 nM.

For the compound `COc1ccc(F)cc1S(=O)(=O)Nc1cccc(-c2nc(C(C)C)sc2-c2ccnc(NCCS(C)(=O)=O)n2)c1` [Example 149], the IC50 is 100 to 1000 nM in experiment [1] (setting [7]); 100 to 1000 nM in experiment [1] (setting [4]); 100 to 1000 nM in experiment [2] (setting [8]); 100 to 1000 nM in experiment [2] (setting [5]); less than 100 nM in experiment [3] (setting [9]); 31.6 to 1000 nM in experiment [3] (setting [10]).

Take `CC(=O)N1CCC(Nc2nccc(-c3sc(C(C)C)nc3-c3ccc(F)c(NS(=O)(=O)c4cc(F)ccc4F)c3)n2)CC1` [Example 77, N-{5-[5-{2-[(1-Acetyl-4-piperidinyl)amino]-4-pyrimidinyl}-2-(1-methylethyl)-1,3-thiazol-4-yl]-2-fluorophenyl}-2,5-difluorobenzenesulfonamide]: the IC50 in experiment [1] (setting [7]) was less than 100 nM; in experiment [1] (setting [4]), less than 100 nM; in experiment [2] (setting [8]) it was less than 100 nM; in experiment [2] (setting [5]), less than 100 nM; in experiment [3] (setting [9]), less than 100 nM; in experiment [3] (setting [6]) it was 3.16 to 31.6 nM.

As for `CC(C)(C)c1nc(-c2cccc(NS(=O)(=O)c3cc(F)ccc3F)c2F)c(-c2ccnc(CCN3CCOCC3)n2)s1` [Example 215], the IC50 in experiment [1] (setting [7]) was less than 100 nM; in experiment [1] (setting [4]), less than 100 nM; in experiment [2] (setting [8]), less than 100 nM; in experiment [2] (setting [5]), less than 100 nM; in experiment [3] (setting [9]), less than 100 nM; in experiment [3] (setting [6]) it was 3.16 to 31.6 nM.

Take `CC(C)(C)c1nc(-c2cccc(NS(=O)(=O)c3cc(F)ccc3F)c2F)c(-c2ccnc(NCCF)n2)s1` [Example 179]: the IC50 in experiment [1] (setting [7]) was less than 100 nM; in experiment [1] (setting [4]) it was less than 100 nM; in experiment [2] (setting [8]), less than 100 nM; in experiment [2] (setting [5]), less than 100 nM; in experiment [3] (setting [9]), less than 100 nM; in experiment [3] (setting [10]), no more than 3.16 nM.

For the compound `CC(C)(C)c1nc(-c2c(F)ccc(NS(=O)(=O)c3cc(F)ccc3F)c2F)c(-c2ccnc(N)n2)s1` [Example 258, N-{3-[5-(2-amino-4-pyrimidinyl)-2-(1,1-dimethylethyl)-1,3-thiazol-4-yl]-2,4-difluorophenyl}-2,5-difluorobenzenesulfonamide], the IC50 is less than 100 nM in experiment [1] (setting [4]), less than 100 nM in experiment [2] (setting [5]) and no more than 3.16 nM in experiment [3] (setting [10]).

With `CC(C)CNc1nccc(-c2sc(C3CCOCC3)nc2-c2cccc(NS(=O)(=O)c3cc(F)ccc3F)c2F)n1` [Example 67, 2,5-Difluoro-N-{2-fluoro-3-[5-{2-[(2-methylpropyl)amino]-4-pyrimidinyl}-2-(tetrahydro-2H-pyran-4-yl)-1,3-thiazol-4-yl]phenyl}benzenesulfonamide], the IC50 in experiment [1] (setting [7]) is less than 100 nM; in experiment [1] (setting [4]), less than 100 nM; in experiment [2] (setting [8]) it was less than 100 nM; in experiment [2] (setting [5]), less than 100 nM; in experiment [3] (setting [9]) it was less than 100 nM; in experiment [3] (setting [10]), no more than 3.16 nM.

`CCCNc1nccc(-c2sc(C(C)C)nc2-c2ccc(F)c(NS(=O)(=O)c3cc(F)ccc3F)c2)n1` [Example 120]: the IC50 was 100 to 1000 nM in experiment [1] (setting [7]); 100 to 1000 nM in experiment [1] (setting [4]); 100 to 1000 nM in experiment [2] (setting [8]); 100 to 1000 nM in experiment [2] (setting [5]); less than 100 nM in experiment [3] (setting [9]); 3.16 to 31.6 nM in experiment [3] (setting [6]).

(Values after US7994185B2, “Benzene sulfonamide thiazole and oxazole compounds” (Glaxo Smith Kline LLC, priority 2008, dated 2011).)
